One molecule from US12404332B2, “Methods for diagnosing and treating cancers” (Research Development Foundation, priority 2020, dated 2025) can be followed below.

For experiment [1], the system named is PD-L1 in ID8agg cells. Kind of experiment: PD-L1 mRNA (RT-qPCR) in ID8agg cells. The format is cell-based, mouse. How it is done:
(§1) FIGS. 39A-C: CAMB reduces PD-L1 through ubiquitination. FIG. 39A, RT-qPCR for PD-L1 mRNA in OVCAR5 and ID8agg cells treated with (+) or without (−) chlorambucil for 48 hours. (n=4). FIG. 39B, Western blot for PD-L1 protein in OVCAR5 cells with (+) or without (−) MG132 for 6 or 20 hours. (upper panel). PD-L1 expression in OVCAR5 cells treated with chlorambucil 48 hours and/or MG132 for 6 hours (lower panel). FIG. 39C, Ubiquitinated PD-L1 was immunoprecipitated (IP) and subjected to Western blot analysis with anti-ubiquitin (Ub) antibody. Cells were treated with chlorambucil for indicated times prior to ubiquitination analysis.
Quantitative Real-Time Reverse Transcriptase Polymerase Chain Reaction: Total RNA was isolated from homogenized whole lung tissue with Trizol reagent (Invitrogen) according to manufacturer instructions. Subsequently, cDNA was synthesized with 1-2 μg of total RNA using the, SuperScript III reverse transcriptase (Invitrogen). Quantitative PCR (qPCR) was conducted using the Bio-Rad Real-Time PCR System (Applied Biosystems), amplified with transcript-specific primers with SYBR Green (Thermo Scientific), according to manufacturer instructions. Mouse primers were: Tyr, 5′-[…]-3′ (SEQ ID NO: 1) and 5′-[…]-3′ (SEQ ID NO: 2); gp100, 5′-[…]-3′ (SEQ ID NO: 3) and 5′-ID NO: 4); Trp-2, 5′-[…]-3′ (SEQ […]-3′ (SEQ ID NO: 5) and 5′-[…] […]

The subject of experiment [2] is PD-L1 in OVCAR5 cells. Put plainly: PD-L1 mRNA, protein and ubiquitination in OVCAR5 cells. The format is cell-based, human. As to the method: as §1
(§2) Western blotting and immunoprecipitation: To prepare whole cell lysates, cells were harvested and lysed in RIPA (radioimmunoprecipitation assay) buffer plus 1 mM phenylmethylsulphonyl fluoride and Halt protease/phosphatase inhibitor cocktail (Thermo Scientific) at 4° C. Protein concentrations were measured by BCA Protein Assay Kit (Thermo Scientific). Protein was run on precast 4-15% sodium dodecyl sulfate polyacrylamide gels (Bio-Rad), transferred to polyvinylidene fluoride membranes (GE Water and Process Technologies), and then blocked in 5% non-fat milk for 1 hour at room temperature. The membranes were then incubated with 1:1000 diluted primary antibodies against indicated proteins (Cell Signaling). Specific antibody binding was detected by chemiluminescence using Western Lightening Plus regent (Perkin Elmer). Cells for (co) immunoprecipitation experiments were seeded in 15-cm dishes and cultured as described, using 6 million cells per immunoprecipitation reaction. For protein ubiquitination, cells were lysed in denaturing buffer (50 mM Tris-HCl, 0.5 mM EDTA and 1% SDS) followed by heating at 95° C. for 10 minutes and then quenched with 9 volumes of quenching buffer (0.5% Triton X-100, 20 mM Tris-HCl (pH 8.0), 137 mM NaCl, 10% glycerol, 2 mM EDTA). Protease inhibitor cocktail (Roche) was added fresh to all buffers. Cell lysates were incubated on a rotator for 30 minutes at 4° C., and then centrifuged at 20,000 g for 15 minutes at 4° C. Supernatants were subsequently incubated with anti-PD-L1 antibody overnight and processed using Dynabeads Protein G for Immunoprecipitation (Thermo Fisher Scientific). The final eluate was processed and Western blotting was performed.
Quantitative Real-Time Reverse Transcriptase Polymerase Chain Reaction: Total RNA was isolated from homogenized whole lung tissue with Trizol reagent (Invitrogen) according to manufacturer instructions. […] Quantitative PCR (qPCR) was conducted using the Bio-Rad Real-Time PCR System (Applied Biosystems), amplified with transcript-specific primers with SYBR Green (Thermo Scientific), according to manufacturer instructions. […]

For experiment [3], the system named is PD-1 and β2M on OVCAR5 (human ovarian) cells. Put plainly: PD-1 and B2M expression on OVCAR5 cells. The class given is cell-based. As to the method: Tumor and ascites were collected for flow cytometry analyses. Summary graph of CD45-PD-L1 cell percentage and MFI. FIG. 33D, PD-1 and B2M expression on OVCAR5 (human ovarian) cells treated with (+) or without (−) chlorambucil for 48 hours.
Flow cytometry: Mice were sacrificed by cervical dislocation after induction of deep isoflurane anesthesia. ID8agg tumors were collected and cells were stained as described (Derup et al., 2020) using LSR II hardware and analyzed by FACS Diva (BD Bioscience) or Flow Jo software (Flow Jo, LLC). Anti-mouse (clone 10F.9G2) and human (clone 29E.2A3) PD-L1 [both PE/Cy7, Cat #124314 (mouse) 329718 (human)] were matched with isotype control. Apoptosis assessment used Annexin V and propidium iodide (Thermo Scientific) per manufacturer instruction.

Experiment [4] deals with mTORC1. Kind of experiment: Western blots for mTORC1 pathway and LC3 autophagy. The class given is cell-based. As to the method:
FIGS. 40A-C: CAMB suppresses mTORC1 signals and reduces TIC numbers. FIG. 40A, Western blots for proteins in the mTORC1 pathway. Cells were treated with chlorambucil as indicated concentration for 48 hours. FIG. 40B, Western blot for LC3I/II to assess autophagy in cell lysates treated±chlorambucil at indicated concentrations. FIG. 40C, Percent of ALDH^hi TIC by flow cytometry of ES2 cells cultured±chlorambucil. Percent CD44^+CD24^+ ID8agg TIC and CD44^+CD133^+CD24^+ B16 TIC detected by flow cytometry.
as §2
Background: Immunoblotting shows a protein as a band on a membrane.

Experiment [5] deals with ID8agg cells. Put plainly: Tumor-initiating cell (TIC) flow cytometry, ID8agg cells. The class given is cell-based, mouse.

“Also recorded” adds a separate entry of the source.

As to `O=C(O)CCCc1ccc(N(CCCl)CCCl)cc1` [chlorambucil], the “PD-L1 mRNA” value in experiment [1] was “significantly reduced”. Moreover, the “amount of ubiquitinated PD-L1” value in experiment [2] (Co-IP) is “increased”. For the same molecule, in experiment [2] (OVCAR5 cells), the “PD-L1 mRNA” value is “little changed”. In addition, the “PD-1 and β2M on the cell surface” value in experiment [3] was “Upregulation”. In experiment [4], the autophagy entry is listed as “promote autophagy” and the mTORC1 signals entry is given as “suppress mTORC1 signals; also recorded: inhibits mTORC1 signaling”. Further, in experiment [4] (Western blot), the “LC3 lipidation (LC3 I and II)” value is “increased LC3 lipidation”; the “phosphorylation of P70S6K and 4EBP1” value was “reduced phosphorylation of P70S6K and 4EBP1 in a dose-dependent manner”. The “CD44^+CD133^+CD24^+ TIC population” value in experiment [5] is on record as “significantly reduced”.
